Reference: patent US20030144310A1 (priority 2001, published 2003)

Columns and labels:
rNPFF-1 [1] = target: T1, rNPFF-1 (Rattus norvegicus, UniProt Q9EP86); experiment: Functional activity (EC50 and intrinsic activity relative to NPFF); assay type: cell-based; details: for Functional Activity rNPFF-1 I.A. %: intrinsic activity as percentage of maximal response by NPFF; for EC50: tested 0.001 nM to 3600 nM
T1 construct: expressed in transfected cells
Text: (§1) The data shown are representative of at least two independent experiments.

rNPFF-2 [2] = target: T2, rNPFF-2 (Rattus norvegicus, UniProt Q9EQD2); experiment: Radioligand binding assay, competitive displacement of [125I]1DMeNPFF at cloned NPFF receptors; details: cloned rat receptor
T2 construct: expressed in transfected cells

rNPFF-2 [3] = target: T2, rNPFF-2; experiment: Functional activity (EC50 and intrinsic activity relative to NPFF); assay type: cell-based; details: for Functional Activity rNPFF-2 I.A. %: intrinsic activity as percentage of maximal response by NPFF; for EC50: tested 0.001 nM to 3600 nM, read-out: Functional Activity rNPFF-2 EC50
Text: as §1

rNPFF-1 [4] = target: T1, rNPFF-1; experiment: Radioligand binding assay, competitive displacement of [125I]1DMeNPFF at cloned NPFF receptors; details: cloned rat receptor

T1 sequence (Q9EP86 whole entry): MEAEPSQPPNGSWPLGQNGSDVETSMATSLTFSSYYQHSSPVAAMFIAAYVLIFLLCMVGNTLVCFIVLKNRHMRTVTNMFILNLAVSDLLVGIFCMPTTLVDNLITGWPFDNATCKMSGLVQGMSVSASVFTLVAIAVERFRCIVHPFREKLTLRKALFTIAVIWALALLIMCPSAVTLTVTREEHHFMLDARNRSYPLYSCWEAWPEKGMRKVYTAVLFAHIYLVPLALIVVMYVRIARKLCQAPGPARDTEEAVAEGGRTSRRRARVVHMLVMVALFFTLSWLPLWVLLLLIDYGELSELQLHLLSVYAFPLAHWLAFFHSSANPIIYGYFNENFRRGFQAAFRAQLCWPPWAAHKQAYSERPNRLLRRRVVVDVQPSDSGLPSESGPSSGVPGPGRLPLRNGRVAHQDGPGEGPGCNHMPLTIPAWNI
T2 sequence (Q9EQD2 whole entry): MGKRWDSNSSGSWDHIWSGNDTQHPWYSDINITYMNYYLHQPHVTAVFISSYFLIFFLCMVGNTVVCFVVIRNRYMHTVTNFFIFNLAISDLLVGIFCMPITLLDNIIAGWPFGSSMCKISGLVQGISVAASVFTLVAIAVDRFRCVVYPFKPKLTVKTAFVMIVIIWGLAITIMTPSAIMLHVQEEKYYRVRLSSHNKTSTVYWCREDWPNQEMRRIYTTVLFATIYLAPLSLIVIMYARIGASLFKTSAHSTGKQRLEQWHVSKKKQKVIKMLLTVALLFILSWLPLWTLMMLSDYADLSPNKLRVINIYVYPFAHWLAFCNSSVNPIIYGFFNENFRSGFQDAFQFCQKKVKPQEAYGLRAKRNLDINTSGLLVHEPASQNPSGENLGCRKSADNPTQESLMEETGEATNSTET

Row | Functional Activity rNPFF-1 I.A. % (rNPFF-1 [1]) [%] | Functional Activity rNPFF-2 I.A. % (rNPFF-2 [3]) [%] | EC50 (rNPFF-2 [3]) [nM] | SMILES | EC50 (rNPFF-1 [1]) [nM] | Ki (rNPFF-2 [2]) [nM] | Ki (rNPFF-1 [4]) [nM]
1 | 88 | 81 | 527 | N=C(N)NCCC[C@H](NS(=O)(=O)c1cccc2ccccc12)C(=O)N[C@@H](Cc1ccccc1)C(N)=O [Compound 1001, N1-[(1S)-2-Amino-1-benzyl-2-oxoethyl]-(2S)-(5-guanidino)-2-[(1-naphthylsulfonyl)amino]pentanamide] | 38 | 1450 | 261
2 | 88 | 89 | 846 | N=C(N)NCCC[C@H](NS(=O)(=O)c1cccc([N+](=O)[O-])c1)C(=O)N[C@@H](Cc1ccccc1)C(N)=O [Compound 1002] | 139 | 1250 | 136
3 | 75 | 43 | 3720 | N=C(N)NCCC[C@H](NS(=O)(=O)c1ccc(Cl)cc1)C(=O)N[C@@H](Cc1ccccc1)C(N)=O [Compound 1006] | 151 | 1010 | 266
4 | 72 | 81 | 660 | N=C(N)NCCC[C@H](NS(=O)(=O)c1ccc(Cl)c([N+](=O)[O-])c1)C(=O)N[C@@H](Cc1ccccc1)C(N)=O [Compound 1016] | 62 | 2090 | 151
5 | 84 | 45 | > 3160 | N=C(N)NCCC[C@H](NS(=O)(=O)c1ccc(F)c(Cl)c1)C(=O)N[C@@H](Cc1ccccc1)C(N)=O [Compound 1017] | 376 | 3560 | 1140
6 | 21 | 10 | 5620 | N=C(N)NCCC[C@H](NS(=O)(=O)c1ccc(C(F)(F)F)cc1[N+](=O)[O-])C(=O)N[C@@H](Cc1ccccc1)C(N)=O [Compound 1018] | > 3160 | 4430 | 1950
7 | 56 | 45 | > 3160 | N=C(N)NCCC[C@H](NS(=O)(=O)c1c(Cl)cccc1Cl)C(=O)N[C@@H](Cc1ccccc1)C(N)=O [Compound 1019] | 2200 | 3370 | 815
8 | 01 | 02 | > 10000 | N=C(N)NCCC[C@H](NS(=O)(=O)c1cc(Cl)sc1Cl)C(=O)N[C@@H](Cc1ccccc1)C(N)=O [Compound 1020] | > 10000 | 5150 | 1950
9 | 78 | 59 | 2330 | N=C(N)NCCC[C@H](NS(=O)(=O)c1cc(Cl)ccc1Cl)C(=O)N[C@@H](Cc1ccccc1)C(N)=O [Compound 1021] | 1030 | 2030 | 335
10 | 86 | 34 | > 3160 | N=C(N)NCCC[C@H](NS(=O)(=O)c1ccc(Cl)c(Cl)c1)C(=O)N[C@@H](Cc1ccccc1)C(N)=O [Compound 1022] | 1860 |  | 
11 | 69 | 43 | > 3160 | N=C(N)NCCC[C@H](NS(=O)(=O)c1c(F)c(F)c(F)c(F)c1F)C(=O)N[C@@H](Cc1ccccc1)C(N)=O [Compound 1024] | 720 | 5400 | 486
12 | 78 | 33 | > 3160 | COc1ccc(Br)cc1S(=O)(=O)N[C@@H](CCCNC(=N)N)C(=O)N[C@@H](Cc1ccccc1)C(N)=O [Compound 1025] | 596 | 4120 | 328
13 |  |  | > 3160 | N#Cc1ccccc1S(=O)(=O)N[C@@H](CCCNC(=N)N)C(=O)N[C@@H](Cc1ccccc1)C(N)=O [Compound 1027] | 183 | 6170 | 515
14 | 30 | 86 | > 3160 | N=C(N)NCCC[C@H](NS(=O)(=O)c1ccc2ccccc2c1)C(=O)N[C@H](Cc1ccccc1)C(N)=O [Compound 1029] | 477 | 2690 | 399
15 |  | 71 |  | N=C(N)NCCC[C@@H](NS(=O)(=O)c1ccccc1Br)C(=O)N[C@@H](Cc1ccccc1)C(N)=O [Compound 1030] |  |  | 
16 |  | 09 |  | N=C(N)NCCC[C@H](NS(=O)(=O)c1ccccc1Br)C(=O)N[C@@H](Cc1ccccc1)C(N)=O [Compound 2001] |  |  | 
17 | 102 | 52 | > 3160 | COc1ccc(C)cc1S(=O)(=O)N[C@@H](CCCNC(=N)N)C(=O)N[C@@H](Cc1ccccc1)C(N)=O [Compound 2003] |  | > 10000 | 

The remaining lines, values behind:

Row | SMILES | Functional Activity rNPFF-1 I.A. % (rNPFF-1 [1]) [%] | Functional Activity rNPFF-2 I.A. % (rNPFF-2 [3]) [%] | EC50 (rNPFF-2 [3]) [nM] | EC50 (rNPFF-1 [1]) [nM] | Ki (rNPFF-2 [2]) [nM] | Ki (rNPFF-1 [4]) [nM]
18 | N=C(N)NCCC[C@H](NS(=O)(=O)c1ccc([N+](=O)[O-])cc1)C(=O)N[C@@H](Cc1ccccc1)C(N)=O [Compound 1003] | 74 | 44 | 1870 | 149 | 2610 | 732
19 | N=C(N)NCCC[C@H](NS(=O)(=O)c1c(F)cccc1F)C(=O)N[C@@H](Cc1ccccc1)C(N)=O [Compound 1004] | 79 | 43 |  | 117 | 1450 | 173
20 | N=C(N)NCCC[C@H](NS(=O)(=O)c1ccc(F)cc1)C(=O)N[C@@H](Cc1ccccc1)C(N)=O [Compound 1005] | 71 | 46 | 3500 | 104 | 1370 | 150
21 | Cc1ccc(S(=O)(=O)N[C@@H](CCCNC(=N)N)C(=O)N[C@@H](Cc2ccccc2)C(N)=O)cc1 [Compound 1007] | 79 | 55 | 2300 | 286 | 3080 | 756
22 | N=C(N)NCCC[C@H](NS(=O)(=O)c1ccccc1)C(=O)N[C@@H](Cc1ccccc1)C(N)=O [Compound 1008] | 70 | 20 | 5620 | 4700 | 4410 | 321
23 | COc1ccc(S(=O)(=O)N[C@@H](CCCNC(=N)N)C(=O)N[C@@H](Cc2ccccc2)C(N)=O)cc1 [Compound 1009] |  |  |  |  | 1090 | 321
24 | N=C(N)NCCC[C@H](NS(=O)(=O)c1ccc(Cl)cc1Cl)C(=O)N[C@@H](Cc1ccccc1)C(N)=O [Compound 1010] | 85 | 28 | 2980 | 594 | 1860 | 871
25 | N=C(N)NCCC[C@H](NS(=O)(=O)Cc1ccccc1)C(=O)N[C@@H](Cc1ccccc1)C(N)=O [Compound 1011, N1-[(1S)-2-Amino-1-benzyl-2-oxoethyl]-(25)-5-[amino(imino)methyl]amino-2-[(benzylsulfonyl)amino]pentanamide] | 74 | 62 | 1340 | 765 | > 10000 | 5960
26 | N=C(N)NCCC[C@H](NS(=O)(=O)c1ccc(I)cc1)C(=O)N[C@@H](Cc1ccccc1)C(N)=O [Compound 1012] | 71 | 93 | 1420 | 358 | 2920 | 1430
27 | N=C(N)NCCC[C@H](NS(=O)(=O)c1cccs1)C(=O)N[C@@H](Cc1ccccc1)C(N)=O [Compound 1013] | 80 | 42 | > 3160 | 135 | 6390 | 211
28 | N=C(N)NCCC[C@H](NS(=O)(=O)c1ccc2ccccc2c1)C(=O)N[C@@H](Cc1ccccc1)C(N)=O [Compound 1014, N1-[(1S)-2-Amino-1-benzyl-2-oxoethyl]-(2S)-(5-guanidino)-2-[(2-naphthylsulfonyl)amino]pentanamide] | 74 | 73 | 906 | 52 | 2780 | 314
29 | COc1ccc(S(=O)(=O)N[C@@H](CCCNC(=N)N)C(=O)N[C@@H](Cc2ccccc2)C(N)=O)cc1OC [Compound 1015] | 84 | 74 | 1810 | 140 | > 10000 | 462
30 | N#Cc1cccc(S(=O)(=O)N[C@@H](CCCNC(=N)N)C(=O)N[C@@H](Cc2ccccc2)C(N)=O)c1 [Compound 1023] | 90 | 28 | > 3160 | 166 | 9920 | 496
31 | N=C(N)NCCC[C@H](NS(=O)(=O)c1ccccc1[N+](=O)[O-])C(=O)N[C@@H](Cc1ccccc1)C(N)=O [Compound 1026] | 79 | 59 | > 3160 | 412 | 3500 | 535
32 | N=C(N)NCCC[C@@H](NS(=O)(=O)c1ccc(F)cc1)C(=O)N[C@@H](Cc1ccccc1)C(N)=O [Compound 1028] |  | 62 | 1580 | 404 | 8060 | 1280
